Laboratory results from US20030236301A1, “Liposomal delivery of vitamin E based compounds” (priority 2001, published 2003).
Values joined by “and” are separate entries in the source; they are usually repeats but may differ in a detail not shown here. Equal entries are not always repeated. “Also recorded” adds a separate entry of the source.

Legend:
[1] = test system: 66 c1.4 GFP murine mammary tumor cells; experiment: TUNEL assay for apoptosis in vivo in 66 c1.4-GFP tumor sections; set-up: species or system Balb/c mice; settings: liposomal formulation by aerosol, vs control
Source text: Deparaffinized sections (5 μm) of tumor tissue were used to assess apoptosis using reagents supplied in the ApopTag In Situ Apoptosis Detection kit (Intergen, Purchase, N.Y.) according to the manufacturer's instructions. Nuclei that stained brown were scored as positive for apoptosis and those that stained blue were scored as negative. At least sixteen 400× microscopic fields were scored per tumor. Data are presented as the mean±S.E. number of apoptotic cells counted in three separate tumors from each group. Pictures of tumor tissue were taken at 1000× magnification.

66 c1.4-GFP tumors [2] = experiment: CD31 immunohistochemistry of tumor blood vessel numbers; format: in vivo, Balb/c mice; settings: liposomal formulation by aerosol, vs control
66 c1.4-GFP tumors [3] = experiment: KI-67 immunohistochemistry of cell proliferation in tumors; format: in vivo, Balb/c mice; settings: liposomal formulation by aerosol, vs control
[4] = test system: 66 c1.4 GFP murine mammary tumor cells; experiment: Tumor growth of 66 c1.4-GFP mammary tumor cells in Balb/c mice (tumor volume); settings: for inhibition of tumor growth: Example 18: liposomal formulation by aerosol; for reduction of mean tumor volume vs aerosol control: Example 25: liposomal α-TEA/aerosol
Experimental: 66 c1.4-GFP cells were harvested by trypsinization, centrifuged, resuspended in McCoy's media, containing no supplements at a density of 2×10^5/100 μl. Mice were injected in the inguinal area at a point equal distance between the 4th and 5th nipples on the right side using a 23 gauge needle.
50 mice were assigned (10 per group) to aerosol treatment, aerosol control, oral treatment, oral control, or to the no treatment group so that the average tumor volume for all groups were closely matched. […] Tumors were measured using calipers every other day, and volumes were calculated using the formula: volume (mm^3) [width (mm)^2×length (mm)]/2. Body weights were determined weekly.
Balb/c mice were injected with 200,000 66 c1.4 GFP cells subcutaneous in the mammary fat pad area between the 4th and 5th nipple on the right side of the body.
Mice are injected with 200,000 66 c1.4 GFP murine mammary tumor cells as described on day 0. Treatments are initiated on day 9 when tumors reached 1-3 mm in size. Aerosol treatments of α-TEA liposomes (5 mg α-TEA/mouse) are administered daily for 16 days (FIG. 8). Data represent the mean+/−Standard Error (SE), N=10 mice for control and treatment groups.
Balb/c mice were injected s.c. with 2×10^5 66 c1.4-GFP cells in the inguinal area between the 4th and 5th nipple on the right side of the body. When tumors reached 2×2-4×4 mm (9 days after tumor injection), mice were placed into 5 groups ((Group 1: untreated control, Group 2: liposome/aerosol control, Group 3: liposomal α-TEA aerosol treatment, Group 4: peanut oil/gavage control, Group 5: α-TEA in peanut oil/gavage treatment) of 10 mice/group) such that the mean tumor volume of each group was closely matched. Daily treatments were initiated on day 9 after tumor injection.
Balb/c mice were injected with 200,000 66 c1.4 GFP cells subcutaneous in the mammary fat pad area between the 4th and 5th nipple on the right side of the body. […] Animals were treated with α-TEA in liposome, vitamin E succinate in liposome, or control liposome alone via aerosol, 7 days per week, for 21 days. Animals were given 75 mg compound via nebulization per day such that each animal received 36 μg compound per day.
The size of the tumors, 9-21 days after injection of 200,000 66 c1.4 GFP cells between the 4th and 5th nipple on the right side of each mouse, is determined. Treatments are initiated on day 9 after tumor inoculation. Each group consists of n=10+/−SE. Gavage Treatment=Treatments of 5 mg of α-TEA in ethanol and peanut oil (0.1 ml volume) are administered daily starting on day 9 after tumor inoculation and continuing through day 21. Gavage Control=Mice received peanut oil and ethanol alone (0.1 ml volume)/daily, starting on day 9 after tumor inoculation and continuing through day 21. Data (tumor size) are depicted as the mean+/−standard error for days 9, 11, 13, 15, 17, 19, and 21.
Balb/c mice were injected with 200,000 66 c1.4 GFP cells subcutaneous in the mammary fat pad area between the 4th and 5th nipple on the right side of the body. […] Animals were treated with α-TEA in liposome vitamin E succinate in liposome, or control liposome alone via oral gavage, 2 times per day, 7 days per week, for 21 days. Animals were given a total of 6 mg compound per day.

[5] = test system: 66 c1.4 GFP murine mammary tumor cells; experiment: Lung and lymph node metastases of 66 c1.4-GFP tumors in Balb/c mice; format: in vivo
Source text: Metastastic lesions in the five lung lobes were counted visually at time of sacrifice. Fluorescent green micro-metastatic cancer cell colonies in the left lung lobe and lymph nodes were counted using a Nikon fluorescence microscope (TE-200) with a 20×objective (200× magnification) and Image-Pro Plus (version 4.1; Media Cybernetics, Silver Spring, Md.) software associated with the microscope. Fluorescent lesions were separated into three size grouping: <5 μm, 5-10 μm and >10 μm.
At sacrifice, lungs were taken, examined visually for metastatic lesions and frozen for analyses of micrometastases by fluorescence.
Use of a Nikon fluorescence microscope and Image-Pro Plus software permitted measurement of green fluorescing micrometastases into three size groupings of <5 μm, 5-10 μm and >10 μm.
At sacrifice, the left lung lobe of each mouse of flash frozen and saves for detection of GFP expressing micrometatstic lesions via fluorescent microscopy.

[6] = after thirty minutes, intramuscular delivery; cited from earlier work
[7] = Aerosol characteristics: estimated α-TEA deposited in respiratory tract (HPLC, All Glass Impinger); set-up: species or system mouse; settings: liposomal aerosol, 15 min, estimated deposited fraction 30%
Experimental: HPLC analyses were conducted on α-TEA liposomes recovered from aerosol in the All Glass Impinger (Ace Glass Co., Vineland, N.J.). The delivered dosage=concentration (μg/L)×mouse minute volume (1-min/kg)×duration of delivery (min)×estimated deposited fraction (30%; 17).

[8] = test system: Poly (ADP-Ribose) Polymerase (PARP) cleavage in 66 c1.4-GFP cells; experiment: Western immunoblot detection of PARP cleavage fragment; format: cell-based, mouse; settings: 48 hours
Experimental: Poly (ADP-Ribose) Polymerase cleavage was analyzed as an alternate method for detecting apoptosis. 66 c1.4-GFP cells were treated as described above for the DAPI assay. Following the PBS wash, cells were suspended in lysis buffer (1×PBS, 1% Nonidet P-40, 0.5% sodium deoxycholate, 0.1% sodium dodecyl sulfate (SDS), 1 μg/ml leupeptin, 1 μg/ml aprotinin, 1 mM dithiothreitol (DTT), 2 mM sodium orthovanadate, 10 μg/ml phenylmethylsulfonyl fluoride (PMSF)) for 30 min at 4° C., vortexed, and supernatants collected by centrifugation at 15,000×g for 20 min. Protein concentrations were determined using the Bio-Rad (Bradford) protein assay (Bio-Rad Laboratories, Hercules, Calif.), and samples (100 μg/lane) resolved on 7.5% SDS-polyacrylamide gels electrophoresed under reducing conditions.
Proteins were electroblotted onto a nitrocellulose membrane ([…] Optitran BA-S-supported nitrocellulose; Schleicher and Schuell, Keene, N.H.). After transfer, membranes were blocked with blocking buffer [25 mM Tris-HCl (pH 8.0), 125 mM NaCl, 0.5% Tween-20, and 5% non-fat dry milk] for 45 min at room temperature. Immunoblotting was performed using 1 μg of primary rabbit anti-human Poly (ADP-Ribose) Polymerase antibody [PARP (H-250), Santa Cruz Biotechnology, Santa Cruz, Calif.], and horseradish peroxidase-conjugated goat anti-rabbit immunoglobulin was used as the secondary antibody (Jackson Immunoresearch Laboratory, West Grove, Pa.) at a 1:3,000 dilution. Horseradish peroxidase-labeled bands from washed blots were detected by enhanced chemiluminescence (Pierce, Rockford, Ill.) and autoradiography (Kodak BioMax film; Rochester, N.Y.).

[9] = Body weight and long term safety in Balb/c mice; format: in vivo
Experimental: Body weights were determined weekly.
Nine days after tumor inoculation, treatments groups are initiated: Aerosol Treatment (TX)=aerosol delivery of α-TEA liposome (5 mg/mouse)/daily through day 23. Aerosol Control=Aerosol delivery of liposome composition only daily through day 23. Gavage treatment=gavage administration of α-TEA at 5 mg/mouse in ethanol/peanut oil daily through day 23. Gavage control=gavage administration of ethanol/peanut oil only through day 23. Mice were weighed at the initiation of treatment (day 9) and thereafter on days 13, 16, 20, and 23 (FIG. 6). Data are presented as the mean+/−standard deviation.

[10] = Serum and tissue levels of α-TEA after liposomal aerosol (HPLC); format: in vivo, mice
Experimental: Eight mice are treated via pulmonary aerosol delivery with 40 mg of α-TEA (5 mg/mouse) in 6 ml liposomes. The mice inhaled the aerosol over a period of 30 minutes until delivery was complete. Mice are sacrificed 0, 2, 6, or 24 hours after the treatment ended. Serum and tissue levels of α-TEA are determined by HPLC analyses (FIG. 7).

MDA-MB-435 GFP FL cells = experiment: Tumor growth of MDA-MB-435 GFP FL breast cancer cells in nude mice; format: in vivo, Nu/Nu athymic nude mice; settings: for reduction of tumor growth: Example 32: liposome gavage, 8 mg per day
Experimental: Animals were given a total of 8 mg compound per day. […] Alpha-TEA liposome gavage reduced tumor growth by 68, 75, 78, 79 and 79% on days 27, 29, 31, 33, and 35, respectively (FIG. 15).
Animals were […] 3 ppm methylselenocysteine (MSC) in water, α-TEA in liposome via aerosol, or gavaged 10 mg/kg b.w. trans-resveratrol (t-RES) in first 1:1. EtOH:physiological saline, and starting at day 24, 6.5% EtOH and 93.5% Neobee oil. A combination group was treated with each of the above three compounds, and a control group was treated with aerosolized liposome. 100 μl water, and 50 μl of the t-Res solvent. Animals were treated seven days a week, for 35+ days.

[11] = test system: A2780 cisplatin-sensitive cell line; experiment: Apoptosis in A2780 ovarian cancer cells in vitro; format: cell-based, human; settings: treated in culture
[12] = test system: cp-70 human ovarian cancer cells; experiment: Apoptosis in cp-70 ovarian cancer cells in vitro; format: cell-based; settings: treated in culture
[13] = AeroTech II nebulizer; geometric standard deviation 2.04
Experimental: Aerosol was administered to mice as previously described (17).

66 c1.4-GFP cells [14] = experiment: Colony-forming assay; settings: 10 days
Experimental: 66 c1.4-GFP cells were seeded at 600 cells per 35×10 mm tissue culture plate (Nunclon, Rochester, N.Y.) and allowed to adhere over night at 37° C. […] Treatments were left on the cells for 10 days without change of media. After 10 days, media were removed and plates were washed with PBS three times. Cells were stained for 30 min with 1% methylene blue in PBS and colonies >0.5 mm manually counted.

66 c1.4-GFP cells [15] = experiment: Apoptosis by morphological evaluation of DAPI-stained nuclei; settings: three days
Experimental: Briefly, 1×10^5 cells/well in 12-well plates were cultured overnight to permit attachment. […] After treatment, floating cells plus scraped-released adherent cells were pelleted by centrifugation for 5 min at 350×g, washed one time with phosphate buffered saline (PBS; 137 mM NaCl, 2.7 mM KCL, 10.4 mM Na2HPO4, 10.5 mM KH2PO4; pH 7.2), and stained with 2 μg/ml of 4′,6-diamidino-2-phenylindole dihydrochloride (DAPI, Boehringer Mannheim, Indianapolis, Ind.) in 100% methanol for 15 min at 37° C.
Cells were viewed at 400× magnification with a Zeiss ICM 405 fluorescent microscope using a 487701 filter. […] Data are reported as percentage of apoptotic cells per cell population, i.e., number apoptotic cells/total number of cells counted. Three different microscopic fields were examined and 200 cells counted at each location for a minimum of 600 cells counted per slide. Apoptotic data are presented as mean±S.D. for three independently conducted experiments.

[16] = Example 33: liposomal aerosol, α-TEA 5 mg/d, 9NC 2 μg/d in nebulizer, listed as Lip/α-TEA
[17] = liposomal aerosol, at sacrifice

Cc1c(C)c2c(c(C)c1O)CCC(C)(CCCC(C)CCCC(C)CCCC(C)C)O2 (racemic) [dl-α-tocopherol]
% Enhanement of TUNEL positive apoptotic cells [1]: 44% | % Reduction of CD31 tumor blood vessel numbers (66 c1.4-GFP tumors [2]): 51% | % Reduction of KI67 cell proliferation (66 c1.4-GFP tumors [3]): 33% | inhibition of tumor growth ([4]; 75 mg in nebulizer/day, day 15 of treatment): 81% | inhibition of tumor growth ([4]; 75 mg in nebulizer/day, day 17 of treatment): 73%

CC[C@@]1(O)C(=O)OCc2c1cc1n(c2=O)Cc2cc3c([N+](=O)[O-])cccc3nc2-1 [9-nitrocamptothecin, reference compound]
Inhibition (%) Metastases Lymphnode ([5]; Example 33: liposomal aerosol, α-TEA 5 mg/d, 9NC 2 μg/d in nebulizer, listed as Lip/9NC): 60% | Levels of 9-nitrocamptothecin in the brain [6]: 0

Cc1c(C)c2c(c(C)c1OCC(=O)O)CC[C@@](C)(CCC[C@H](C)CCC[C@H](C)CCCC(C)C)O2 [α-TEA, 2,5,7,8-tetramethyl-(2R-(4R,8R,12-trimethyltridecyl)chroman-6-yloxy) Acetic Acid]
α-TEA deposited in the respiratory tract of each mouse each day [7]: approximately 36 μg and ~36 μg | lymph node micrometastatic lesions (average) ([5]; Example 31: liposomal formulation via gavage, 6 mg per day): 3.1±0.8 | Inhibition (%) Metastases Lung [5, 16]: 71% | Inhibition (%) Metastases Lymphnode [5, 16]: 94% | Inhibition (%) Metastases Lung ([5]; Liposomal, Aerosol, 5 mg/d, vs aerosol control): 81% | Inhibition (%) Metastases Lung ([5]; Liposomal, Gavage, 3 mg/2× d): 59% | Inhibition (%) Metastases Lymphnode ([5]; Liposomal, Gavage, 3 mg/2× d): 56% | No. Animals/Group with Visible Lung Metastases [5, 17]: 0/10 | No. Visible Lung Tumor Foci/Animal [5, 17]: No visible tumors | No. Visible Lung Tumor Foci/Animal ([5]; liposomal aerosol, at sacrifice, listed as Aer./Liposome/α-TEA): 0 | PARP cleavage (84 kDa fragment) ([8]; 5 μg/ml): only intact PARP protein was detected | PARP cleavage (84 kDa fragment) ([8]; 10 μg/ml): evident | PARP cleavage (84 kDa fragment) ([8]; 20 μg/ml): evident | long term adverse effects ([9]; non-tumor bearing mice, aerosol or gavage for 17 days, kept eleven months): did not show any adverse effects | body weight vs control groups ([9]; tumor-bearing mice, liposome aerosol or gavage in ethanol/peanut oil, 5 mg/mouse daily): no significant weight differences; also recorded: No differences in mean body weights | serum and tissue presence of α-TEA ([10]; liposomal aerosol 5 mg/mouse over 30 minutes, 0 hours after treatment ended): found only in the stomach tissue | serum and tissue presence of α-TEA ([10]; liposomal aerosol 5 mg/mouse, 2 hours after completion of treatment): present in the serum and stomach | serum and tissue presence of α-TEA ([10]; liposomal aerosol 5 mg/mouse, 6 hours after completion of treatment): present in the liver and stomach | serum and tissue presence of α-TEA ([10]; liposomal aerosol 5 mg/mouse, 24 hours after completion of treatment): present in the liver and stomach | reduction of tumor growth (MDA-MB-435 GFP FL cells; day 27): 68% | reduction of tumor growth (MDA-MB-435 GFP FL cells; day 29): 75% | reduction of tumor growth (MDA-MB-435 GFP FL cells; day 31): 78% | reduction of tumor growth (MDA-MB-435 GFP FL cells; day 33): 79% | reduction of tumor growth (MDA-MB-435 GFP FL cells; day 35): 79% | decrease of tumor volume from the control (MDA-MB-435 GFP FL cells; Example 35: day 35): 47.8% | induction of apoptosis [11]: undergo apoptosis | induction of apoptosis [12]: undergo apoptosis | mass median aerodynamic diameter of liposome aerosol [13]: 2.01 μm | decrease of colony formation compared to EtOH control (66 c1.4-GFP cells [14]; 1.25 μg/ml): 30% | colony formation (66 c1.4-GFP cells [14]; 5 μg/ml): No colonies formed | colony formation (66 c1.4-GFP cells [14]; 10 μg/ml): No colonies formed | apoptosis (percentage of apoptotic cells) (66 c1.4-GFP cells [15]; 2.5 μg/ml): 5% | apoptosis (percentage of apoptotic cells) (66 c1.4-GFP cells [15]; 5 μg/ml): 6% | nuclear morphology of DAPI stained cells (66 c1.4-GFP cells [15]; 10 μg/ml): exhibited condensation and fragmented DNA | reduction of mean tumor volume vs aerosol control ([4]; day 13 of treatment): 50% | reduction of mean tumor volume vs aerosol control ([4]; day 17 of treatment): 61% | reduction of tumor growth ([4]; Example 26: liposome aerosol, 75 mg in nebulizer/day, day 21): 67% | tumor weights vs gavage control ([4]; Example 27: gavage, 5 mg in ethanol and peanut oil daily, days 9-21): no significant differences | mean tumor volume vs gavage control ([4]; Example 28: gavage, 5 mg/day/mouse EtoH/peanut oil formulation): did not differ | reduction of tumor growth ([4]; Example 30: liposome gavage, 6 mg per day, day 15): 85% | reduction of tumor growth ([4]; Example 30: liposome gavage, 6 mg per day, day 17): 85% | reduction of tumor growth ([4]; Example 30: liposome gavage, 6 mg per day, day 21): 70% | Inhibition (%) Tumor Growth [4, 16]: 65% | Inhibition (%) Tumor Growth ([4]; Liposomal, Gavage, 3 mg/2× d): 70%
